Values quoted from earlier work, collected in patent US8536091B2, “System for protection of plants from pathogens using alkamides” (priority 2008, dated 2013).

Test system: microbial plant pathogens, including bacteria and fungi
Conditions: in the absence of plants; relatively high levels

C/C=C/C=C\CC/C=C/C(=O)NCC(C)C [affinin, N-isobutyl-deca-2E,6Z,8E-trieneamide]
in vitro growth inhibition of microbial plant pathogens: inhibit the growth of some microbial plant pathogens
